Laboratory results from paper PMC8113459, “Selective inhibition of cullin 3 neddylation through covalent targeting DCN1 protects mice from acetaminophen-induced liver toxicity” (Nature Communications, 2021).
Values joined by “and” are separate entries in the source; they are usually repeats but may differ in a detail not shown here. Equal values may be shown once.

Legend:
[1] = Cell viability assay (WST-8), KYSE70; format: cell-based, human; conditions: human, KYSE70 cells, replicates, read-out: cell viability relative to control
Procedure: (§1) Cell viability assay was performed as previously described. The effect of DCN1 inhibitors on cell growth was evaluated by a WST-8 [2-(2-methoxy-4-nitrophenyl)-3-(4-nitrophenyl)-5-(2,4-disulfophenyl)-2H-tetrazolium, monosodium salt assay (Dojindo Molecular Technologies, Inc). Cells (2000–3000 cells in each well) were seeded in 96-well tissue culture plates in medium (100 μL) and treated with serial dilution of DCN1 inhibitors for 3 days. At the end of incubation, WST-8 dye (20 μL) was added to each well and incubated for 1–3 h, then the absorbance was measured in a microplate reader (Molecular Devices) at 450 nm. Cell growth inhibition was evaluated as the ratio of the absorbance of the sample to that of the control. The values were inserted into Prism software, and the curves and the EC50 values were produced by Prism software.

KYSE70 cells = assay: Cell viability assay (WST-8), KYSE70; format: cell-based, human; conditions: for cell viability relative to control: replicates
Procedure: as §1

DCN1 [2] = target: T1, DCN1 (Homo sapiens, UniProt Q96GG9); assay: Competitive FP binding assay
Procedure: Competitive FP binding assay was performed as previously described. The IC50 and Ki values of DI-1548 and DI-1548DD were determined in competitive binding experiments. Mixtures of preincubated protein/probe complex solution in the assay buffer (196 μL) and compounds in DMSO (4 μL) were added into assay plates which were incubated at room temperature for 30 min with gentle shaking. The concentrations of DCN1 protein and fluorescent probe were 50 and 5 nM, respectively. […] FP values in millipolarization units were measured using the Infinite M-1000 plate reader (Tecan U.S., Research Triangle Park, NC) in Microfluor 1 96-well, black, round-bottom plates (Thermo Fisher Scientific, Waltham, MA) at an excitation wavelength of 485 nm and an emission wavelength of 530 nm. IC50 values were determined by nonlinear regression fitting of the competition curves using the dose–response inhibition equation (four parameters, variable slopes) included in the Prism/GraphPad software. Ki values were calculated using methods described previously.

[3] = Cell viability assay (WST-8), U2OS; format: cell-based, human; conditions: human, U2OS cells, replicates, read-out: cell viability relative to control
Procedure: as §1

U2OS cells = assay: Cell viability assay (WST-8), U2OS; format: cell-based, human; conditions: replicates
Procedure: as §1

MDA-MB-231 cells = assay: Cell viability assay (WST-8), MDA-MB-231; format: cell-based, human; conditions: for cell viability relative to control: replicates
Procedure: as §1

[4] = Cell viability assay (WST-8), MDA-MB-231; format: cell-based, human; conditions: human, MDA-MB-231 cells, replicates, read-out: cell viability relative to control
Procedure: as §1

DCN1 [5] = target: T1, DCN1; assay: Intact-protein mass spectrometric analysis, Method B (DCN1); format: binding; conditions: 3 h incubation, 100 nM protein
Procedure: Method B: Recombinant DCN1 or DCN3 protein (100 nM in 25 mM Tris 7.5, 200 mM NaCl, 1 mM DTT buffer) was incubated with 1.2-fold excess of the DCN1 inhibitors at 37 °C for 10 min, 1 h, or 3 h. Following incubation, the protein was analyzed by LC–MS (Agilent Q-TOF 6545) under the following conditions: fragmentor voltage, 300 V; skimmer voltage, 75 V; nozzle voltage, 100 V; sheath gas temperature, 350 °C; and drying gas temperature, 325 °C. MassHunter Qualitative Analysis software (Agilent) was used to analyze the data. Intact protein masses were obtained using the maximum entropy deconvolution algorithm. The mass spectrometry data in Supplementary Figs. 14–17 were generated by Method B.

HCT116 cells = assay: Cell viability assay (WST-8), HCT116; format: cell-based, human; conditions: for cell viability relative to control: replicates
Procedure: as §1

[6] = Cell viability assay (WST-8), HCT116; format: cell-based, human; conditions: human, HCT116 cells, replicates, read-out: cell viability relative to control
Procedure: as §1

neddylation of cullin 3 = assay: Western blot, cullin 3 neddylation in cells of different tissue types (U2OS, THLE2, MDA-MB-231, KYSE70, HCT116); format: cell-based, human
Procedure: (§2) Western blotting was performed as described previously. Treated cells were lysed by RIPA buffer supplemented with protease inhibitor. The expression level of indicated proteins was examined by immunoblotting analysis and GAPDH was used as the loading control. Antibodies were purchased commercially: cullin 1 (sc-17775, 1:500 dilution) and cullin 2 (sc-166506, 1:500 dilution) from Santa Cruz Biotech (Santa Cruz, CA); cullin 4A (PA5-14542, 1:1000 dilution), cullin 4B (PA5-50647, 1:1000 dilution), and DCN3 (DCUN1D3, PA5-44000, 1:1000 dilution) from Thermo Fisher Scientific (Wayne, MI); cullin 3 (2759, 1:1000), NRF2 (12721, 1:1000 dilution), HO-1 (70081, 1:1000 dilution), and Bim (2819, 1:1000 dilution) from Cell Signaling Technology (Boston, MA); DCN1 (GWB-E3D700, 1:1000 dilution) from GenWay Biotech (San Diego, CA); and cullin 5 (A302-173A, 1:500 dilution) from Bethyl Labs (Montgomery, TX). Results are representative of two independent experiments.

NRF2 protein = assay: Western blot, NRF2 protein accumulation in cells; format: cell-based, human; conditions: 300 nM
Procedure: as §2

T1 sequence (Q96GG9 whole entry): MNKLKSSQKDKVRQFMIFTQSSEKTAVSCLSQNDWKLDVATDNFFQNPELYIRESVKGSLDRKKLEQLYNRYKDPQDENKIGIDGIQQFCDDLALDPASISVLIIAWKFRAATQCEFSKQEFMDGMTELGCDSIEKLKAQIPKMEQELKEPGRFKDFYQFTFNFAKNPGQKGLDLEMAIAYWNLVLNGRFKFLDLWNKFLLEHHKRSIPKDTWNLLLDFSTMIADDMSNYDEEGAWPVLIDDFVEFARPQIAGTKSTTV

times less potent than DI-1548 in binding to DCN1 (DCN1 [2]): > 1000 times
FP signal of the competitive binding curve (DCN1 [2]; Concentration (nM) 0.169351, duplicates): 48.4 and 48
FP signal of the competitive binding curve (DCN1 [2]; Concentration (nM) 0.508053, duplicates): 47 and 44.7
FP signal of the competitive binding curve (DCN1 [2]; Concentration (nM) 1.52416, duplicates): 42.8 and 45.5
FP signal of the competitive binding curve (DCN1 [2]; Concentration (nM) 4.57247, duplicates): 46.4 and 45.6
FP signal of the competitive binding curve (DCN1 [2]; Concentration (nM) 13.7174, duplicates): 45.7
FP signal of the competitive binding curve (DCN1 [2]; Concentration (nM) 41.1523, duplicates): 43.9 and 44.9
FP signal of the competitive binding curve (DCN1 [2]; Concentration (nM) 123.457, duplicates): 43.5 and 44.2
FP signal of the competitive binding curve (DCN1 [2]; Concentration (nM) 370.37, duplicates): 42.9 and 41.1
FP signal of the competitive binding curve (DCN1 [2]; Concentration (nM) 1111.11, duplicates): 36.2 and 35.7
FP signal of the competitive binding curve (DCN1 [2]; Concentration (nM) 3333.33, duplicates): 28.3 and 29.7
FP signal of the competitive binding curve (DCN1 [2]; Concentration (nM) 10000, duplicates): 20.5 and 22.6
IC50 (DCN1 [2]; DCN1 50 nM, probe 5 nM, 30 min): 2880 nM
EC50 (MDA-MB-231 cells; Homo sapiens, MDA-MB-231, 72 h, cell line assigned from panel order, read-out: EC50, cell growth inhibition): > 1000 nM
covalent complex formation with DCN1 (DCN1 [5]): fails to form any detectable complex
EC50 (HCT116 cells; Homo sapiens, HCT-116, 72 h, cell line assigned from panel order, read-out: EC50, cell growth inhibition): > 1000 nM
SMILES: C=C(CN1CCOCC1)C(=O)NC[C@H](NC(=O)[C@@H](Cc1nc2ccc(C(C)C)cc2s1)NC(=O)CC)C1CCCCC1 [DI-1548DD]
viability at 72 h ([1]; conc 10, 72 h): 98.7%
viability at 72 h ([1]; conc 300, 72 h): 88%
EC50 (KYSE70 cells; Homo sapiens, KYSE-70, 72 h, cell line assigned from panel order, read-out: EC50, cell growth inhibition): > 1000 nM
cell viability relative to control (KYSE70 cells; conc 10, 72 h): 101.942 and 101.216
cell viability relative to control (KYSE70 cells; conc 30, 72 h): 111.396 and 109.174 and 90.4505
cell viability relative to control (KYSE70 cells; conc 100, 72 h): 115.736 and 126.65 and 80.7614
cell viability relative to control (KYSE70 cells; conc 300, 72 h): 86.0914 and 84.7716
cell viability relative to control (KYSE70 cells; conc 1000, 72 h): 63.3503 and 88.731 and 70.4569
viability at 72 h ([3]; conc 10, 72 h): 90.3%
viability at 72 h ([3]; conc 1000, 72 h): 87.9%
cell viability relative to control (U2OS cells; conc 10, 72 h): 109.342 and 93.2895 and 98.1579
cell viability relative to control (U2OS cells; conc 30, 72 h): 118.158 and 95.5263 and 92.6316
cell viability relative to control (U2OS cells; conc 100, 72 h): 108.684 and 93.421 and 101.974
cell viability relative to control (U2OS cells; conc 300, 72 h): 103.684 and 90.921 and 92.2368
cell viability relative to control (U2OS cells; conc 1000, 72 h): 95.1316 and 97.1053 and 98.2895
cell viability relative to control (MDA-MB-231 cells; conc 10, 72 h): 111.264 and 113.448
cell viability relative to control (MDA-MB-231 cells; conc 30, 72 h): 102.295 and 109.77
cell viability relative to control (MDA-MB-231 cells; conc 100, 72 h): 112.459 and 97.8161
cell viability relative to control (MDA-MB-231 cells; conc 300, 72 h): 97.7869 and 103.793
cell viability relative to control (MDA-MB-231 cells; conc 1000, 72 h): 105.329 and 127.049 and 101.954
viability at 72 h ([4]; conc 10, 72 h): 93.6%
viability at 72 h ([4]; conc 30, 72 h): 108%
viability at 72 h ([4]; conc 100, 72 h): 104%
viability at 72 h ([4]; conc 300, 72 h): 104%
cell viability relative to control (HCT116 cells; conc 3, 72 h): 101.869 and 103.551
cell viability relative to control (HCT116 cells; conc 10, 72 h): 94.2056 and 90
cell viability relative to control (HCT116 cells; conc 30, 72 h): 80.7477 and 101.215 and 108.939
cell viability relative to control (HCT116 cells; conc 100, 72 h): 96.6355 and 107.727
cell viability relative to control (HCT116 cells; conc 300, 72 h): 79.5327 and 97.5701 and 109.546
cell viability relative to control (HCT116 cells; conc 1000, 72 h): 96.8224 and 90.3738
viability at 72 h ([6]; conc 3, 72 h): 96.9%
viability at 72 h ([6]; conc 10, 72 h): 107%
viability at 72 h ([6]; conc 100, 72 h): 87.8%
viability at 72 h ([6]; conc 1000, 72 h): 79.7%
times less potent than DI-1548 and DI-1859, respectively, on cullin 3 neddylation (neddylation of cullin 3): > 300 times
effect on the neddylation of cullin 3 (neddylation of cullin 3; 100–300 nM): no significant effect
accumulation of NRF2 protein (NRF2 protein): no obvious accumulation
